Experimental findings from patent publication US11685714B2, “Prodrugs of cytotoxic active agents having enzymatically cleavable groups” (BAYER PHARMA AKTIENGESELLSCHAFT, priority 2016, dated 2023) are described below.

Data set [1] concerns NCI-H292: human mucoepidermoid lung carcinoma cells. In words: MTT assay on NCI-H292. It is filed as cell-based. Particulars: NCI-H292, 96 h, growth inhibition, 96 h incubation. The method, then: (§1) The analysis of the cytotoxic effects of the ADCs was carried out with various cell lines:
(§2) The cells were cultivated by the standard method as stated by the American Tissue Culture Collection (ATCC) or the Leibniz-lnstitut DSMZ-Deutsche Sammlung von Mikroorganismen und Zellkulturen GmbH (DSMZ) for the cell lines in question.
(§3) The cells were then incubated in an incubator at 37° C. and 5% carbon dioxide. […] To this end, the MTT reagent was incubated with the cells for 4 h, followed by lysis of the cells overnight by addition of the detergent. […] The measured data were used to calculate the ICo50 of the growth inhibition using the DRC (dose response curve). The proliferation of cells which were not treated with test substance but were otherwise identically treated was defined as the 100% figure.
For orientation: Tetrazolium dyes change colour on reduction, which living cells bring about.

Data set [2] deals with KPL4: human breast cancer cell line. In words: MTT assay on KPL4. Particulars: KPL4, 96 h, growth inhibition, 96 h incubation. The format is cell-based. The procedure: as §1, §2, §3
Data set [3] deals with SK-HEP-1: human liver cell cancer line. In words: MTT assay on SK-HEP-1. Particulars: SK-HEP1, 96 h, growth inhibition, 96 h incubation. The format is cell-based. The method, then:
as §1, §2, §3

The target in data set [4] is T1, motor domain of the human kinesin spindle protein KSP/Eg5 (Homo sapiens, UniProt P52732).
T1 construct: The motor domain of the human kinesin spindle protein KSP/Eg5; purchased tebu-bio/Cytoskeleton Inc 027EG01-XL
T1 sequence (P52732 18-359 limits assumed): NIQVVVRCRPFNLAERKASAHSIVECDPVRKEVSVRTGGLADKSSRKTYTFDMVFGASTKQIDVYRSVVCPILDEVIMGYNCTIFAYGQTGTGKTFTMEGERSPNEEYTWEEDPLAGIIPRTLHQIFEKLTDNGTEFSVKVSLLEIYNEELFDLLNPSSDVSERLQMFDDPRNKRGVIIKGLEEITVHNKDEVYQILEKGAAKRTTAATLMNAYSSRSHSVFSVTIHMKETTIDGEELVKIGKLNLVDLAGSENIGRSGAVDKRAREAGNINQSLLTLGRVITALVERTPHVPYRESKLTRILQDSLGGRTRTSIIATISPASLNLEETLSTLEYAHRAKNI
Kind of data set: Inhibition of the kinesin spindle protein KSP/Eg5 (ATPase activity, malachite green). It is filed as biochemical. Conditions: 10 nM KSP/Eg5, microtubuli, 500 μM ATP, 2 h at RT. The procedure:
The motor domain of the human kinesin spindle protein KSP/Eg5 (tebu-bio/Cytoskeleton Inc, No. 027EG01-XL) was incubated in a concentration of 10 nM with microtubuli (bovine or porcine, tebu-bio/Cytoskeleton Inc) stabilized with 50 μg/ml taxol (Sigma No. T7191-5MG) for 5 min at RT in 15 mM PIPES, pH 6.8 (5 mM MgCl2 and 10 mM DTT, Sigma). […] Incubation was at RT for 2 h. ATPase activity was detected by detecting the inorganic phosphate formed using malachite green (Biomol). […] The positive controls used were monastrol (Sigma, M8515-1 mg) and ispinesib (AdooQ Bioscience A10486). The individual data of the dose-activity curve are eight-fold determinations. The IC50 values are means of two independent experiments.

Data set [5] is described as follows: Assay for determination of stability in rat plasma. The format is in vitro ADME. Particulars: 1 μg/ml, 37° C., 24 h. The procedure: To examine the stability of compounds A and B, 1 ml of rat plasma in a 1.5 ml Eppendorf tube in each case was equilibrated to 37° C. on an Eppendorf shaker. A stock solution (9 acetonitrile/1 DMSO) having a concentration of 100 μg/ml for compound A and compound B was prepared. 10 μl in each case of the stock solution were pipetted into 1 ml of equilibrated rat plasma, so as to give a concentration of 1 μg/ml.
The samples were kept at 450 rpm and 37° C. for 24 h. At each of the sampling times of 0, 0.25 h, 0.5 h, 1 h, 2 h, 4 h, 6 h and 24 h, 50 μl were taken and pipetted into 150 μl of methanol. Internal standard was included in the initial charge of methanol at a concentration of 0.05 μg/ml. After brief vortexing, 300 μl of 10 mM ammonium acetate buffer (pH 6.8) were added and centrifuged at 1881 g for 10 min. The samples were then analysed by means of RP-HPLC analysis and by LC-MS analysis.

Take `CC(C)(C)[C@H](c1cc(-c2cc(F)ccc2F)cn1Cc1ccccc1)N(CC[C@H](N)C(=O)NCCNC(=O)CNC(=O)CCCC(=O)NCCCC[C@H](N)C(=O)O)C(=O)CO` [Example M28, N^6—{(3R,7S)-7-Amino-3-[1-benzyl-4-(2,5-difluorophenyl)-1H-pyrrol-2-yl]-4-glycoloyl-2,2-dimethyl-8,13,16,20-tetraoxo-4,9,12,15-tetraazaicosan-20-yl}-L-lysine/trifluoroacetic acid (1:1)]: the IC50 in data set [1] is 155 nM; in data set [2], 210 nM; in data set [3], 187 nM; in data set [4], 1.41 nM.
Consider `CC(C)(C)[C@H](c1cc(-c2cc(F)ccc2F)cn1Cc1ccccc1)N(CC[C@H](N)C(=O)NCCNC(=O)CCCC(=O)NCCCC[C@H](N)C(=O)O)C(=O)CO` [Example M29, N^6-(5-{[2-({(2S)-2-Amino-4-[{(1R)-1-[1-benzyl-4-(2,5-difluorophenyl)-1H-pyrrol-2-yl]-2,2-dimethylpropyl} (glycoloyl)amino]butanoyl}amino)ethyl]amino}-5-oxopentanoyl)-L-lysine/trifluoroacetic acid (1:1)], for which the figures for the 50% inhibitory concentration (IC50) in data set [1], in data set [3] and in data set [4] were 187 nM, 207 nM and 2.03 nM, respectively.
As for `CNC(=O)[C@H](CCN(C(=O)CO)[C@@H](c1cc(-c2cc(F)ccc2F)cn1Cc1ccccc1)C(C)(C)C)NC(=O)[C@H](CC(N)=O)NC(=O)[C@H](C)NC(=O)[C@H](C)NC(=O)Cc1ccncc1` [Example R3r-LLL, N-(Pyridin-4-ylacetyl)-L-alanyl-L-alanyl-N^1-[(2S)-4-[{(1R)-1-[1-benzyl-4-(2,5-difluorophenyl)-1H-pyrrol-2-yl]-2,2-dimethylpropyl}(glycoloyl)amino]-1-(methylamino)-1-oxobutan-2-yl]-L-aspartamide, reference compound], in data set [5], the “stability in rat plasma” value was “stable over 24 h”. The figures for the half-inhibitory concentration (IC50) in data set [1], in data set [3] and in data set [4] were 204 nM, 232 nM and 162 nM, respectively.

A word on the IC50: it is the concentration that gives 50% inhibition. Lower therefore signals higher potency.
